Test in all cases: inhibition of tumour cell growth, NCI panel, 48 h
The subject of experiment [1] is A549 NSCLC.
Experiment [2] relates to COLO 205 colon.
For experiment [3], the system named is DU-145 prostate.
Experiment [4] deals with EKVX NSCLC.
The test system of experiment [5] is HCT-15 colon.
The subject of experiment [6] is HS 578T breast.
Experiment [7] has as its system MDA-MB-231 breast.
For experiment [8], the system named is MDA-MB-435.
Experiment [9] relates to MDA-N.
The subject of experiment [10] is MOLT-4 leukemia.
The test system of experiment [11] is OVCAR-4 ovarian.
Experiment [12] has as its system SK-MEL-2 melanoma.
In experiment [13] the test system is SNB-75 CNS.
The test system of experiment [14] is SW-620 colon.
For experiment [15], the system named is TK-10 renal.
Experiment [16] has as its system UACC-257 melanoma.

This note sets out measurements from PubChem BioAssay (NCI).

Structures are written as SMILES.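 Results reflect a 48-hour exposure of cells in 96-well plates to compound at five concentrations. TGI: total growth inhibition.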

With `O=C1C=CC2(C=C1)O[C@H](CCc1ccccc1)[C@@H](CCc1ccccc1)O2`, the TGI in experiment [1] was over 100 µM; in experiment [2] it was over 100 µM; in experiment [3], over 100 µM; in experiment [4], 83.3 µM; in [5] it was over 100 µM; in experiment [6], over 100 µM. In addition, the TGI in [7] is over 100 µM; in experiment [8] it was 76.1 µM; in experiment [9], over 100 µM; in experiment [10], over 100 µM; in experiment [11] it was over 100 µM; in experiment [12], over 100 µM. Also, the TGI in experiment [13], in experiment [14], in experiment [15] and in experiment [16] was over 100 µM each time.
Take `CC1=CC(=O)c2ccc3c4ccccc4n(C)c3c2C1=O`: the TGI in experiment [1] was over 100 µM; in [2], over 100 µM; in experiment [3], over 100 µM; in experiment [4], over 62.7 µM; in experiment [5], over 100 µM; in experiment [6], over 100 µM. Moreover, the TGI in experiment [7] is over 100 µM; in [8] it was 33.4 µM; in experiment [9], 33.1 µM; in experiment [10] it was over 72.8 µM; in experiment [11] it was over 100 µM; in experiment [12], 53.1 µM. Moreover, the TGI in experiment [13], in experiment [14], in experiment [15] and in experiment [16] was over 100 µM throughout.
As to `COC(=O)c1ccc(C)cc1C1CN=NC12Cc1c(C)cccc1C2=O` (configuration not stated), the TGI in experiment [1] is over 100 µM; in [2] it was 42.8 µM; in experiment [3] it was over 100 µM; in experiment [4] it was over 100 µM; in [5], over 100 µM; in experiment [6] it was over 100 µM. For the same compound, the TGI in [7] was over 100 µM; in [8] it was over 71.2 µM; in experiment [9], over 100 µM; in experiment [10], over 69.6 µM; in [11], over 93.9 µM; in experiment [12], 98.3 µM. The TGI was over 100 µM in experiment [13], over 100 µM in experiment [14], over 100 µM in [15] and over 81.8 µM in experiment [16].
`O=C(O)CNc1ncc2c(n1)-c1ccccc1OC2`: the TGI in [1], in experiment [2], in [3], in experiment [4], in [5] and in experiment [6] was over 100 µM throughout. In addition, the TGI in [7], in experiment [8], in [9], in experiment [10], in experiment [11] and in experiment [12] was over 100 µM in each case. Besides, the TGI in experiment [13], in [14], in [15] and in experiment [16] was over 100 µM in each case.
In the case of `O=C(c1ccsc1)c1nccc2c1cnc1ccccc12`, the TGI in experiment [1] was over 100 µM; in [2], over 100 µM; in experiment [3] it was over 100 µM; in experiment [4] it was 88.4 µM; in experiment [5] it was over 100 µM; in [6] it was 70.6 µM. Also, the TGI in experiment [7] was over 100 µM; in [8] it was over 100 µM; in experiment [9], over 100 µM; in [10], 24.3 µM; in experiment [11], over 100 µM; in experiment [12], over 100 µM. Also, the TGI in [13] is 88.2 µM; in experiment [14] it was over 100 µM; in experiment [15] it was over 100 µM; in [16], over 100 µM.
As to `Cc1cc(NS(=O)(=O)c2ccc(NC(=O)c3ccc4nc5ccccc5c(Nc5ccc(S(N)(=O)=O)cc5)c4c3)cc2)no1`, the TGI is 66.3 µM in experiment [1]; 43.8 µM in experiment [2]; over 100 µM in experiment [3]; 63 µM in experiment [4]; 41.3 µM in experiment [5]; 86.8 µM in experiment [6]. Also, the TGI was determined as 67.1 µM in [7]; 45.3 µM in experiment [8]; 66 µM in [9]; 61.8 µM in experiment [10]; 89.9 µM in experiment [11]; 73.3 µM in experiment [12]. The TGI in experiment [13] was 94.7 µM; in experiment [14] it was 72.3 µM; in experiment [15] it was 82.9 µM; in experiment [16] it was 57.8 µM.
On to `c1ccc([P+](Cc2ccc(C[P+](c3ccccc3)(c3ccccc3)c3ccccc3)s2)(c2ccccc2)c2ccccc2)cc1`, for which the TGI in [1], in [2], in experiment [3], in experiment [4], in experiment [5] and in [6] was over 100 µM in each case. In addition, the TGI in [7], in experiment [8], in experiment [9], in experiment [10], in experiment [11] and in [12] was over 100 µM in each case. Also, the TGI in experiment [13], in experiment [14], in [15] and in experiment [16] was over 100 µM each time.
